Data on 2 compounds can be found in patent publication EP4259152B1, “CEMTIRESTAT DISULFIDE, PRODRUG OF ALDO-KETO REDUCTASE INHIBITOR, PREPARATION, PHARMACEUTICAL COMPOSITION AND USE THEREOF” (Centrum Experimentálnej Medicíny SAV, v.v.i., priority 2020, dated 2022).

Where two headings read alike, the source gives them in different places.

Data set [1] has as its target T1, AKR1B10 (Homo sapiens, UniProt O60218). The settings on record: Stefek et al.; J. Med Chem. 58: 2649-57, 2015; cited from earlier work.
Another data set deals with T2, ALR2 (Rattus norvegicus, UniProt P07943).
T2 construct: The ALR2 enzyme from rat lenses was isolated by the method of Hayman and Kinoshit; from tissue; host or cells: rat eye lenses
Put plainly: Test B: Inhibition of ALR2 by disulfide of formula I in the presence of GSH (NADPH consumption at 340 nm). In kind it is biochemical. The note with it: disulfide of formula I 100 µM, 67 mM phosphate buffer (pH 7.4), 37 °C, measured 2 min after GSH addition. The protocol: Preparation ofALR2. The ALR2 enzyme from rat lenses was isolated by the method of Hayman and Kinoshit (J. Biol. Chem. 240: 877-882, 1965). The homogenate was centrifuged at 10,000 g at 0-4 °C for 20 min. The supernatant was precipitated with saturated ammonium sulfate solution gradually at 40 %, 50 % and finally at 75 % saturation. After the first two precipitations, the supernatant was used. The sediment from the last step, containing ALR2 activity, was resuspended in 75% ammonium sulfate and stored in smaller aliquots in a liquid nitrogen container.
Enzyme test. ALR2 activity was measured spectrophotometrically (Stefek et al.; Bioorg. Med Chem. 16: 4908-4920, 2008) by determining NADPH consumption at 340 nm and expressed as a decrease in optical density (O.D.) / s / mg protein. The reaction mixture contained 4.67 mM D,L-glyceraldehyde as substrate, 0.11 mM NADPH in 67 mM phosphate buffer (pH 7.4), GSH at the desired concentration and 0.05 ml of enzyme preparation a total volume of 1.5 ml. The reference (blank) sample contained all of the above components except D,L-glyceraldehyde substrate and was used to correct for NADPH oxidation unrelated to substrate reduction. Enzyme catalysis was initiated by the addition of D,L-glyceraldehyde and the reaction was monitored for 4 minutes after an initial 1 minute period at 37 °C. The enzyme activity was adjusted by diluting the enzyme preparations with distilled water so that 0.05 ml of the preparation gave an average reaction rate for the control samples in the range of 0.020 ± 0.005 absorbance units / min. The effect of inhibitor on enzyme activity was determined by adding a stock solution of inhibitor in DMSO to the reaction mixture at a final concentration of 100 µM so that the final DMSO concentration was 1%. An inhibitor with the same concentration was added to the reference sample. Enzyme activity was started 2 min after the addition of GSH to the reaction mixture by adding D,L-glyceraldehyde used as a substrate, and I(%) values were determined from the measured absorbance decrease values.

Another data set has as its target AKR1B1 (Homo sapiens, UniProt P15121). Put plainly: Inhibition of aldo-keto reductase AKR1B1. In kind it is biochemical.
The nature of data set [2]: Test A: Reduction of disulfide of formula I by GSH (cleavage kinetics to form cemtirestat of formula II, absorbance at 302 nm). In kind it is physicochemical. The note with it: mean ± SD, n=3; for Final degree of disulfide of formula I reduction: calculated after reaching the maximum in the 60th second, disulfide 50 µM, pH 7.4, 37 °C; for Initial rate of cemtirestat of formula II formation: disulfide of formula I 50 µM, 20 mM phosphate buffer (pH 7.4) at 37 °C.

The target in data set [3] is T1, AKR1B10. Put plainly: Inhibition of aldo-keto reductase AKR1B10. In kind it is biochemical. The settings on record: meaning of 'does not interact per se'.
The nature of data set [4]: Test C: Determination of the distribution ratio in the buffer/octan-1-ol system (shake-flask method). The data set is classed as physicochemical. The settings on record: for D (distribution ratio in the buffer/octan-1-ol system): 100 µM, room temperature, mean ± SD, n=3. How it is done:
The partition ratio in the buffer/1-octanol system (system name octan-1-ol), defined as the equilibrium ratio of the total solute concentration in the organic phase to the total solute concentration in the aqueous phase, was determined by the shake-flask method at room temperature. Octan-1-ol saturated with the desired buffer was used as the organic phase for the determination. […] The aqueous solution was shaken with octan-1-ol (20 mL) for 3 hours. Subsequently, the phases were separated in a separatory funnel and the concentration of the solute was determined spectrophotometrically in both phases by means of a calibration curve.

T1 sequence (O60218 whole entry, species assumed): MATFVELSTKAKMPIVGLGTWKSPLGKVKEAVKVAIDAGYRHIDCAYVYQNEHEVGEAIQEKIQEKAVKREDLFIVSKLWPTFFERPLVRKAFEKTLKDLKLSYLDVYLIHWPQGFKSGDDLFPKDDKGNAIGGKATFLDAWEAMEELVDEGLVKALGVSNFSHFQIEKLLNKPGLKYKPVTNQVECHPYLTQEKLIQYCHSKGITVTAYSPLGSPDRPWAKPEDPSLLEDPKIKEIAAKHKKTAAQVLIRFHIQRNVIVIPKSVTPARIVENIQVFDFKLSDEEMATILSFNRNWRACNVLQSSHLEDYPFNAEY

With `O=C(O)Cn1c2ccccc2c2nnc(S)nc21` [Cemtirestat of formula II, 2-(3-thioxo-2,3-dihydro-5H-[1,2,4]triazino[5,6-b]indol-5-yl)acetic acid], the IC50 (in general, the midpoint of a concentration-inhibition curve) at AKR1B10 [1] is 3.69 ± 0.53 µM.
With `O=C(O)Cn1c2ccccc2c2nnc(SSc3nnc4c5ccccc5n(CC(=O)O)c4n3)nc21` [Disulfide of formula I, 2,2'-(disulfanediylbis(5H-[1,2,4]triazino[5,6-b]indole-3,5-diyl))diacetic acid], the inhibition (commonly the drop in the measured response relative to a control, in per cent) at 100 µM was less than 1% on ALR2 (pH 7.4, GSH added 0 µM); less than 1% on ALR2 (pH 7.4, GSH added 5 µM); 8.9 ± 0.6% at ALR2 (pH 7.4, GSH added 10 µM); 12.4 ± 1.4% at ALR2 (pH 7.4, GSH added 20 µM); 16.1 ± 6.9% on ALR2 (pH 7.4, GSH added 40 µM); 72.6 ± 9.1% at ALR2 (pH 7.4, GSH added 100 µM). In addition, the inhibition at 100 µM is 94 ± 1.6% at ALR2 (pH 7.4, GSH added 1000 µM) and 91.1 ± 1.5% on ALR2 (pH 7.4, GSH added 5000 µM). The half-inhibitory concentration (IC50) on AKR1B1 and against AKR1B10 [3] was greater than 100 µM throughout. In addition, the “Final degree of disulfide of formula I reduction” value in data set [2] (GSH 25 µM) was 39.68 ± 1.59%; in data set [2] (GSH 50 µM), 67.70 ± 3.72%; in data set [2] (GSH 100 µM) it was 85.16 ± 5.11%. In addition, the results for the “Initial rate of cemtirestat of formula II formation” value in data set [2] (GSH 25 µM), in data set [2] (GSH 50 µM) and in data set [2] (GSH 100 µM) were 4.46 ± 1.68 nmol/mL/s, 7.30 ± 1.46 nmol/mL/s and 9.83 ± 2.09 nmol/mL/s, respectively. In addition, in data set [4] (acidic environment at pH 4.6, fold higher than cemtirestat of formula II), the “water/octanol distribution ratio compared to cemtirestat of formula II” value is given as roughly 4 fold. The “D (distribution ratio in the buffer/octan-1-ol system)” value amounted to 0.1136 ± 0.0022 in data set [4] (pH 4.6, acetate buffer (0.1M) + 0.15 M KCl) and 0.0095 ± 0.0019 in data set [4] (pH 7.4, phosphate buffer (0.1M) + 0.15 M KCl).
